Data on 4 compounds can be found in patent US10717758B2, “D-amino acid compounds for liver disease” (priority 2012, dated 2020).

One data set has as its system Huh-7 cells. Put plainly: Release of active metabolite in Huh-7 cells. The format is in vitro ADME, human. How it is done: Huh-7 cells were plated in 1 mL culture medium (DMEM, containing glucose, L-glutamine and sodium pyruvate, 10% FBS, 100 IU/mL penicillin, 100 μg/mL streptomycin, 2 mM GlutaMAX, 1% MEM non-essential amino acids) at the concentration 0.8, 0.4 and 0.2 million cells per well on 6 well plates for 24, 48 and 72 hr treatment, respectively. Plated cells were incubated overnight at 37° C. in an incubator.
The following morning test compound was diluted to 20 μM from a stock solution in DMSO in fresh culture medium pre-warmed to 37° C. and 1 mL of the solution/well was added to cells. A final medium volume per well was 2.0 mL, test compound concentration in well was 10 μM and final DMSO concentration was 0.1%.
After 24, 48 or 72 hr, the medium was carefully removed and cell monolayers were washed twice with 2 mL ice-cold PBS per well. Following the last wash, all PBS was carefully removed and 1.0 mL of extraction solution (ice-cold 70% methanol) added. The plate was tightly covered with Parafilm, plastic plate cover and Parafilm again and an intracellular content was extracted at −20° C. for 24 hr.
After 24 hr the extracts were transferred into polypropylene microfuge tubes and dry on a refrigerated centrivap concentrator. Dry residues were reconstituted in 250 μL of HPLC-grade water and centrifuged at 16,000×g for 10 min. Aliquots (100 μL each) of the supernatants were transferred into a 96 well plate and internal standard (4 ng/mL final concentration) was added as the internal standard (IS) for LC-MS/MS analysis.

Another data set addresses T1, cathepsin A (CatA) (Homo sapiens, UniProt P10619).
T1 sequence (P10619 29-326 limits assumed): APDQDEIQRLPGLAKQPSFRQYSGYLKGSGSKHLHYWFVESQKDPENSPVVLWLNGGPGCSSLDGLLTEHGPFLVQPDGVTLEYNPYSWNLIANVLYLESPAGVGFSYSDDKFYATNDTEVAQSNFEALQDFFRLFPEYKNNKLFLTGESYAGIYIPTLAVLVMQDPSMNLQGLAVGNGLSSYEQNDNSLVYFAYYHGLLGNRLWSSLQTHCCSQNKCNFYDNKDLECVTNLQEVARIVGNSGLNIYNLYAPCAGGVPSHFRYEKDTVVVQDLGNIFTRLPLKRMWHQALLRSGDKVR
T1 sequence (P10619 327-480 limits assumed): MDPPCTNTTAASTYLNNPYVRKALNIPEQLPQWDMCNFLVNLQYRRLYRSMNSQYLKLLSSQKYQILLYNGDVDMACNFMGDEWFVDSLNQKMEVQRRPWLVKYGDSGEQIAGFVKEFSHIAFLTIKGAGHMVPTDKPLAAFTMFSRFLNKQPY
Put plainly: Hydrolysis of prodrugs by Cathepsin A. The format is in vitro ADME. To be noted: time not given; 100 μM compound, 37° C., pH 6.0. As to the method: CatA, cathepsin L (CatL) and CES1 were purchased from R & D Systems (Minneapolis, Minn.). Prior to the enzymatic hydrolysis reactions, CatA was activated according to the manufacturer's instruction. Briefly, CatA (0.05 μg/μL) was incubated with CatL (0.005 μg/μL) for 30 min at 37° C. in 25 mM MES pH 6.0 containing 5 mM DTT. The reaction was stopped by addition of the CatL specific inhibitor E64 (10 μM).
The CatA assay was performed at 37° C. The reaction mixture contained 25 mM MES buffer pH 6.0, 100 mM NaCl, 4 mM DTT and 100 μM of the compound. The reaction was started by addition of the activated CatA enzyme to a final concentration of 0.005 μg/μL. […] Reactions were stopped by mixing the sample with an equal volume of ice-cold methanol, and were loaded on a HPLC for analysis.

A short description of data set [1]: Liver TP formation and liver targeting in vivo (Example 6, Table 7). Further details: species or system mice and monkey. From the text: The in vitro antiviral inactivity of Z4 and Z2 is thought to reflect an inability of Huh-7 replicon cells to metabolize the prodrug moiety.
The subject of another data set is HCV genotype 1b replicon. Description: HCV replicon assay. The class given is cell-based. How it is done: Huh-7-derived cell line (Zluc) that harbors an HCV genotype 1b replicon and a luciferase reporter gene was grown in Dulbecco's Modified Eagle Medium (DMEM) supplemented with 10% fetal bovine serum, 2 mM GlutaMAX, 1% MEM nonessential amino acids, 100 IU/mL penicillin, 100 μg/mL streptomycin, and 0.5 mg/mL Geneticin® (G418). For dose response testing the cells were seeded in 96-well plates at 7.5×10^3 cells per well in a volume of 50 μL, and incubated at 37° C./5% CO2. Drug solutions were made up freshly in Huh-7 media as 2× stocks. Ten additional 5-fold dilutions were prepared from these stocks in DMEM without G418. At least three hours after Zluc cells were seeded, drug treatment was initiated by adding 50 μL of drug dilutions to the plates in duplicate. Final concentrations of drug ranged from 100 μM to […]. Cells were then incubated at 37° C./5% CO2. Alternatively, compounds were tested at two concentrations (1 μM and 10 μM). […] For this, media was removed from the plates via gentle tapping. Fifty microliters of ONE-glo luciferase assay reagent was added to each well. The plates were shaken gently for 3 min at room temperature and luminescence was measured on a Victor^3 V 1420 multilabel counter (Perkin Elmer) with a 1 second read time using a 700 nm cut-off filter. The EC50 values were calculated from dose response curves from the resulting best-fit equations determined by Microsoft Excel and XLfit 4.1 software. When screening at two fixed concentrations, the results were expressed as % inhibition at 1 μM and 10 μM.
(A replicon is a self-replicating genome or part of one, used to study replication in cells.)

Data set [2] concerns the target T2, carboxylesterase 1 (CES1) (Homo sapiens, UniProt P23141).
T2 construct: purchased R & D Systems (Minneapolis, Minn.)
T2 sequence (P23141 18-567): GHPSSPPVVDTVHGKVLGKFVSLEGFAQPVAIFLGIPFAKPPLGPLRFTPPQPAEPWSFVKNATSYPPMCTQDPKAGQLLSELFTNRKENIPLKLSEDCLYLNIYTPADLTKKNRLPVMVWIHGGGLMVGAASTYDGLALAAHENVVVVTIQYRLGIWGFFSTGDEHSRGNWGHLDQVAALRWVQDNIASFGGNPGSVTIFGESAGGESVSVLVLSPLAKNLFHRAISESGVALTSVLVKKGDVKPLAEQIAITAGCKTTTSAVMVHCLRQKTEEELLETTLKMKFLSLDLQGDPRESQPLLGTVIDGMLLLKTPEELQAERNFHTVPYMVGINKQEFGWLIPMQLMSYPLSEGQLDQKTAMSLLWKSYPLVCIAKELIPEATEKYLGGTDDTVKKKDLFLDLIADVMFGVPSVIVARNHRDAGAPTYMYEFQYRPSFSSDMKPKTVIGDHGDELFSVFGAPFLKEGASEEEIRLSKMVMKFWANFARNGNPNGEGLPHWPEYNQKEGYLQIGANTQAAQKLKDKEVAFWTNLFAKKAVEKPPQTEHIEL
Put plainly: Hydrolysis of prodrugs by Carboxylesterase 1. The format is in vitro ADME. As to conditions: for CES1 hydrolysis: 100 μM compound, 37° C., pH 7.5.
Procedure: CES1 assay was performed at 37° C. in the reaction mixture containing 50 mM Tris/HCl buffer pH 7.5 and 100 μM of the compound. Reaction was started by addition of the CES1 to the final concentration 0.01 μg/mL. 100 μL aliquots were taken after 0.5 min, 3 hrs and 21 hrs of the incubation and the reaction was stopped by mixing with 100 μl of the ice-cold methanol prior to HPLC analysis.
Samples were analyzed by HPLC using 5 μC-18, 4.6×250 mm Phenomenex® Columbus column (Phenomenex USA, Calif.). The mobile phase consisted of buffer A (25 mM potassium phosphate with 5 mM tetrabutylammonium dihydrogen phosphate pH 6.3) and buffer B (100% methanol).

Data set [3] can be described thus: Plasma nucleoside and liver triphosphate PK after single oral dose (Example 4). To be noted: at 1 μmol/kg, single oral dose 10 mg/kg in PEG 200; for Cmax: read-out: Ms Plasma nucleoside Cmax. The format is in vivo, CD-1 mice. How it is done: Plasma samples were analyzed for nucleoside by LC-MS/MS. The internal standard (IS) was either 2′-MeG-D3 or tiapride. For protein precipitation and extraction, each plasma sample (50 μL) was treated with 500 μL of 0.2% formic acid in acetonitrile and 20 μL of the internal standard working solution. After vortexing and centrifugation, 500 μL of the sample extracts were transferred to a new plate, dried under N2 at ˜28° C. and reconstituted with 75 μL of 0.2% FA in water. The extracts were chromatographed on an Aquasil C18 column using a gradient system of 0.2% formic acid in water and acetonitrile. The analytes were detected and quantified by tandem mass spectrometry in positive ion mode on an MDS Sciex API5000 equipped with a Turbo Ionspray® interface. The calibration range was 0.500 (LLOQ) to 200 ng/mL in mouse plasma.
Internal standard solution was added to the homogenate followed by neutralization with 20% ammonium hydroxide solution and addition of 500 μL 1% formic acid. The tissue samples were extracted by weak anion exchange solid phase extraction (SPE). Post extraction, the eluates were evaporated under nitrogen, followed by reconstitution before injection onto the LC-MS/MS system.

The test system of a further data set is fresh mouse hepatocyte. Put plainly: Release of active metabolite in primary hepatocytes (mouse). To be noted: 10 μM. The format is in vitro ADME. How it is done:
Plates of fresh human and mouse hepatocytes were obtained on ice. The medium was removed and replaced with hepatocyte culture medium (William's E supplemented with penicillin-streptomycin, 1% L-glutamine, 1% insulin-transferrin-selenium and 0.1 μM Dexamethasone (Invitrogen) or with Invitro GRO HI medium complemented with Torpedo antibiotics (Celsis)). Cells were left overnight in an incubator at 37° C. to acclimatize to culture and the medium.
Hepatocyte incubations were conducted at a final volume of 0.5 mL hepatocyte culture medium/well (0.8 million cells/well for human and 0.5 million cells/well for mouse; 12 well plate no overlay, collagen coat). Culture medium from overnight incubation of cells was removed and replaced with fresh medium, pre-warmed to 37° C., containing 10 μM of test compound from a stock solution in DMSO (final DMSO concentration was 0.1%). At each specific time point, incubation medium was removed and cell monolayers were carefully washed two times with ice-cold PBS. Following the last wash, all PBS was carefully removed and 1.0 mL of extraction solution (ice-cold 70% methanol/30% water) added. Cells were scraped off and suspended in the extraction solution, transferred to 2 mL polypropylene microfuge tubes and intracellular contents extracted overnight at −20° C.
After the overnight treatment the cellular extracts were prepared by centrifugation at 16,000×g for 10 min to remove cellular debris. The remaining sample was then dried using a refrigerated centrivap concentrator. Dry extracts were reconstituted in 1000 μL of HPLC-grade water and centrifuged at 16,000×g for 10 min. Aliquots (100 μL each) of the supernatant were transferred into a 96 well plate and internal standard (4 ng/mL final concentration) was added as the internal standard (IS) for LC-MS/MS analysis.
The incubation time points were 6, 24 and 48 hours for human hepatocytes and 1, 4, 8, 12 and 24 hours for mouse hepatocytes.

A further data set deals with Zluc cells. Description: Cytotoxicity evaluation in Zluc cells (CellTiter-Blue). The format is cell-based, human. As to conditions: read-out: HCV Replicon CC50. As to the method: For cytotoxicity evaluation, Zluc cells were treated with compound as described herein, and cell viability was monitored using the CellTiter-Blue Cell Viability Assay (Promega) by adding 20 μL of the assay solution to each well. The plates were then incubated at 37° C./5% CO2 for at least 3 hours.

SMILES strings stand for the structures. pEC50: −log10 of the molar value. Like-named read-outs stand apart in the source and are kept apart here.

Regarding `CC(C)OC(=O)[C@@H](C)N[P@@](=O)(OC[C@H]1O[C@@H](n2ccc(=O)[nH]c2=O)[C@](C)(F)[C@@H]1O)Oc1ccccc1` [Compound (804a) Ia (RP isomer), D-Alanine, N—((RP,2′R)-2′-deoxy-2′-fluoro-2′-methyl-P-phenyl-5′-uridylyl)-, 1-methylethyl ester], the “Huh-7 AUC0-72” value with Huh-7 cells (Table 7) came out at 720.4 pmol*hr/10^6cells. At cathepsin A (CatA), the CatA hydrolysis is 0%. In addition, the “Liver:plasma ratio of drug metabolites” value in data set [1] was “high liver:plasma ratio of drug metabolites”. Also, the pEC50 (in general, −log10 of the EC50, conventionally taken in molar units) in the data set on HCV genotype 1b replicon (Hepatitis C virus, Huh-7, read-out: EC50 (replicon reproduction), genotype 1b HCV replicon-bearing human hepatoma cell line (Huh-7)) was < 4.30; in the data set with HCV genotype 1b replicon (Hepatitis C virus, Table 7, read-out: EC50), < 4.30. Further, the “Hydrolysis by CES1” value in data set [2] is “processed”. Besides, the CES1 hydrolysis in data set [2] (3 h) is listed as 10% @; in data set [2] (21 h) it was 3 h; 26%.
In the case of `CC(C)OC(=O)[C@@H](C)NP(=O)(OC[C@H]1O[C@@H](n2ccc(=O)[nH]c2=O)[C@](C)(Cl)[C@@H]1O)Oc1ccccc1` (single isomer, unassigned; diastereomer 2) [Compound 40i Diastereomer 2], the CatA hydrolysis at cathepsin A (CatA) was 0%. Further, the “Liver TP” value in data set [1] is 4400 pmol·h/g. Also, in the data set on HCV genotype 1b replicon (Table 7, read-out: EC50), the pEC50 is 5.15. For the same compound, the CES1 hydrolysis in data set [2] (21 h) was determined as 4.5% @.
In the case of `CC(C)OC(=O)[C@@H](C)NP(=O)(OC[C@H]1O[C@@H](n2ccc(=O)[nH]c2=O)[C@](C)(Cl)[C@@H]1O)Oc1ccccc1` (single isomer, unassigned; diastereomer 2) [40i Diastereomer 2], in data set [3], the “Ms Plasma nucleoside AUC” value stood at 0.0036 M·s and the Cmax (usually the highest concentration seen after dosing) turned out to be 64 nM. In the data set on fresh mouse hepatocyte, the “MsH AUC” value worked out at 1073 pmol.hr/mill cells and the “MsH Cmax” value was 89 pmol/mill cells.
Take `CC(C)OC(=O)[C@H](C)NP(=O)(OC[C@H]1O[C@@H](n2ccc(=O)[nH]c2=O)[C@](C)(Cl)[C@@H]1O)Oc1ccccc1` (single isomer, unassigned; diastereomer 1) [40ii Diastereomer 1]: in the data set with Huh-7 cells (10 μM test compound), the “Huh-7 TP AUC” value was 4380 pmol.hr/mill cells and the “Huh-7 TP Cmax” value amounted to 123 pmol/mill cells. Also, the “Huh-7 TP (24 hr)” value in the data set on Huh-7 cells (10 μM test compound, 24 hr) is listed as 25. The “Huh-7 TP (48 hr)” value in the data set with Huh-7 cells (10 μM test compound, 48 hr) amounted to 96. In addition, in the data set with Huh-7 cells (10 μM test compound, 72 hr), the “Huh-7 TP (72 hr)” value is reported as 123. Also, in data set [3], the “Ms Plasma nucleoside AUC” value turned out to be 0.00349 M·s and the Cmax was determined as 86 nM. Besides, the pEC50 in the data set on HCV genotype 1b replicon (Zluc (Huh-7-derived) cells, luciferase reporter, 72 hours, read-out: HCV Replicon EC50) is > 6.60. Also, the CC50 – broadly, the concentration that lowers cell viability or growth by half – in the data set on Zluc cells is > 50 µM.
